Experiment [1] concerns the target T1, hCAII (Homo sapiens, UniProt P00918).
T1 construct: made in house; host or cells: Escherichia coli BL21(DE3), pACA plasmid (gift from Carol A. Fierke)
Nature of the experiment: colorimetric p-nitrophenyl acetate hCAII activity assay. Format: biochemical. The procedure: To verify that the p-sulfamoyl benzamide MBP retained its binding following ligation with the linker and bulky recruiting group moieties, the inhibition activity of each degrader candidate was determined using a colorimetric p-nitrophenol acetate hCAII activity assay.[46] In short, recombinantly expressed hCAII was preincubated with the degrader candidate before the addition of p-nitrophenyl acetate, a substrate that upon enzymatic cleavage leads to acetic acid and p-nitrophenolate.
Recombinant hCAII was expressed and purified according to the protocol reported in the Supporting Information. […] Wells were prepared to a final volume of 100 μL per well, including buffer (50 mM HEPES, pH 8.0), enzyme (hCAII, 40 nM), inhibitor (varying concentrations), and substrate (p-nitrophenyl acetate, 500 μM). Inhibitors and protein were preincubated for 10 min at rt, and the substrate was added to the reaction mixture immediately before reading. […] The rate of absorbance for each replicate was corrected for substrate autohydrolysis and inherent inhibitor absorbance by subtracting the rate of absorbance from a blank sample lacking enzyme but containing the inhibitor and substrate. Samples lacking inhibitor but containing enzyme and substrate were used to define 100% hCAII activity. Samples lacking inhibitor and enzyme were used to define 0% hCAII activity. IC50 was determined using non-linear regression with a variable slope on the GraphPad Prism software.

The target of experiment [2] is T2, hCAII (Homo sapiens, UniProt P00918+Q96SW2).
T2 construct: HEK293 cells, a line known to abundantly express hCAII; endogenous in cells; host or cells: HEK293
Nature of the experiment: nine-point dose response hCAII degradation assay in HEK293 cells, western blot. Format: cell-based. The following applies: 24 h; for Dmax: HEK293, HEK293 cells, read-out: DMax (maximum percentage of degradation); for hook effect (attenuation of target degradation at high concentration): doses up to 15 μM. On the procedure: Three biological replicates of HEK293 cells were dosed in parallel with 4 or 5 at concentrations ranging from 5 pM to 15 μM for 24 h prior to lysis. […] This phenomenon can be attributed to the binary complexes of degrader-POI and degrader-E3 ligase outcompeting the POI-degrader-E3 ligase ternary complex at high degrader concentrations. […] The half-maximal degradation (DC50 value reported as a 95% confidence interval) and maximum percentage of degradation (DMax) of each active degrader were determined using a least squares sigmoidal fitting of the degradation activity of dosing concentrations below the observable “hook effect” (Figure 2B).
Figure 3 Dose-dependent degradation of hCAII by 4 and 5. (A) Western blot images of HEK293 cells dosed for 24 h with degrader 4 (left) or 5 (right) at concentrations of 5 pM to 15 μM. (B) Dose response curves of hCAII abundance as a percent of DMSO vehicle for 4 (left) or 5 (right). Band intensities of blots from three biological replicates were quantified using ImageJ software (Experimental Section). Data were normalized to a vehicle-treated (DMSO) group and plotted as a sigmoidal curve. Nonlinear fitting of log([inhibitor]) vs response (three parameters) was generated for 4 with R^2 = 0.955 and 5 with R^2 = 0.855 in GraphPad Prism. Points marked with an asterisk indicate only two biological replicates. In all other cases, error bars represent the standard deviation of triplicate experiments. Full images of the western blots are provided in the Supporting Information (Figures S1 and S3).
Given the inactivity of 1–3 and increased potency of 4 over 5, a 12-atom linker appeared to be a preferred length for favorable ternary complex formation in the heterobifunctional degraders tested. To further examine the role of linker length and composition, we explored hydrocarbon linkers for their ability to improve degrader lipophilicity and membrane permeability without impacting the favorable ternary complex formation. […] Western blot analysis and quantification of three biological replicates identified the degradation of hCAII at concentrations of 11 as low as 50 pM and achieved near-complete hCAII degradation at concentrations of 5 nM (Figures 5A and S3).
After reaching 90% confluency, HEK293 cells were trypsinized, counted, and plated with 2 mL media at 2 × 10^6 cells per well on a tissue-culture-treated, 6-well plate. At the appropriate number of hours before reaching ∼90% confluency, cells were treated with DMSO solutions of the appropriate compounds (final concentration 0.5% DMSO per well). Upon reaching 90% confluency, typically 72 h, culture media were removed and the cells were washed with cold Dulbecco’s phosphate-buffered saline (DPBS). Lysis buffer, composed of cell lysis buffer (Cell Signaling Technology, 9803), protease inhibitor cocktail (Cell Signaling Technology, 5872), and 1 mM phenylmethylsulfonylfluoride, was added to each well, and the plates were rocked at 4 °C for 20 min. Cells were then scraped from the bottom of the plates, and the supernatant was collected after spinning down at 14,000g at 4 °C for 10 min and frozen at −80 °C. Lysates were thawed on ice, and the total protein concentration was measured using a Pierce bicinchoninic acid protein assay (Thermo Fisher Scientific, 23225). […] Following heating at 98 °C for 5 min and cooling to room temperature, the prepared samples were electrophoretically separated on a 4–20% TGX gel (Bio-Rad, 4568095) and transferred to a PVDF membrane (Amersham Hybond P 0.45 μm, 106000019) in a tris-glycine transfer buffer (Thermo Fisher Scientific, LC3675) with a 20% final MeOH concentration. The membrane was rocked at 4 °C with fluorescent blocking buffer (Thermo Fisher Scientific, 37565) for 1 h and then incubated with primary antibodies (hCAII Rabbit mAb, 1:1000 and β-actin Rabbit pAb, 1:2000 in fluorescent blocking buffer) at 4 °C overnight. […]
(In general: In western blotting, separated proteins are transferred to a membrane and probed.)

The mark [3] stands for this setting: enzyme concentration of 40 nM, read-out: IC50, below the detection limit of the assay.
Where [4] appears, read: recombinant hCAII 40 nM, p-nitrophenyl acetate 500 μM, pH 8.0, 95% confidence interval, read-out: IC50 (nM), hCAII inhibition activity (Table S1).

Each structure is given as a SMILES string. Read-outs that look alike come from different tables or passages of the source.

On to `NS(=O)(=O)c1ccc(C(=O)NCCCOCCOCCOCCCNc2cccc3c2C(=O)N(C2CCC(=O)NC2=O)C3=O)cc1` (stereo not drawn) [Compound 5, N-(3-(2-(2-(3-((2-(2,6-Dioxopiperidin-3-yl)-1,3-dioxoisoindolin-4-yl)amino)propoxy)ethoxy)ethoxy)propyl)-4-sulfamoylbenzamide], for which, in experiment [1] (setting [3]), the IC50 is at most 20 nM. In experiment [1] (setting [4]), the IC50 was at most 20 nM. The greatest degradation seen (Dmax) in experiment [2] turned out to be 86%. In addition, in experiment [2] (HEK293 cells), the “DMax (maximum percentage of degradation)” value is 96%, the “concentration of maximum degradation” value was found to be 5 µM and the “hook effect (attenuation of target degradation at high concentration)” value was “hook effect”.
Consider `NS(=O)(=O)c1ccc(C(=O)NCCCOCCCCOCCCNc2cccc3c2C(=O)N(C2CCC(=O)NC2=O)C3=O)cc1` (stereo not drawn) [Compound 4, N-(3-(4-(3-((2-(2,6-Dioxopiperidin-3-yl)-1,3-dioxoisoindolin-4-yl)amino)propoxy)butoxy)propyl)-4-sulfamoylbenzamide], for which, in experiment [1] (setting [3]), the IC50 is at most 20 nM. The half-maximal inhibitory concentration (IC50) in experiment [1] (setting [4]) is at most 20 nM. In addition, the greatest degradation seen (Dmax) in experiment [2] is 96%. Moreover, in experiment [2] (HEK293 cells), the “concentration of maximum degradation” value stood at 0.5 µM and the “hook effect (attenuation of target degradation at high concentration)” value is on record as “hook effect”. For the same compound, the DC50 in experiment [2] (HEK293 cells, 5 pM to 15 μM, 95% confidence interval, read-out: DC50 (half-maximal degradation)) was determined as 5 ± 3 nM.

Broadly, the IC50 is the midpoint of a concentration-inhibition curve. The term Dmax denotes the greatest extent of degradation seen. In general, DC50 refers to the midpoint of the concentration-degradation curve.

The record behind these values is publication PMC9969396, “Development of Human Carbonic Anhydrase II Heterobifunctional Degraders” (Journal of Medicinal Chemistry, 2023).
